Source: PMC5218480 (PLoS ONE, 2017)

System: MV-4-11 cells
Experiment: Gene expression microarray analysis (Affymetrix PrimeView) and GSEA
Assay type: cell-based, human
Set-up: RFU PODN (11730768_x_at) / Fold change /veh PODN (11730768_x_at) / RFU LINC00158 (11744669_a_at) / Fold change /veh LINC00158 (11744669_a_at) / RFU DUSP10 (11751237_a_at) / Fold change /veh DUSP10 (11751237_a_at) / RFU ID3 (11757404_x_at) / Fold change /veh ID3 (11757404_x_at) / RFU PLEKHG5 (11737974_s_at) / Fold change /veh PLEKHG5 (11737974_s_at) / RFU LRRC4B (11730491_at) / Fold change /veh LRRC4B (11730491_at) / RFU GIMAP4 (11747438_a_at) / Fold change /veh GIMAP4 (11747438_a_at) / RFU KRT8 (11758183_x_at) / Fold change /veh KRT8 (11758183_x_at) / RFU CNN1 (11734310_a_at) / Fold change /veh CNN1 (11734310_a_at) / RFU VPS37D (11726825_at) / Fold change /veh VPS37D (11726825_at) / RFU C10orf10 (11716522_x_at) / Fold change /veh C10orf10 (11716522_x_at) / RFU KIR2DL2 /// KIR2DL4 /// KIR2DL5A /// KIR2DL5B /// KIR2DS1 /// KIR2DS2 /// KIR2DS3 /// KIR2DS4 /// KIR3DL3 /// KIR3DL3 /// KIR3DS1 (11738374_at) / Fold change /veh KIR2DL2 /// KIR2DL4 /// KIR2DL5A /// KIR2DL5B /// KIR2DS1 /// KIR2DS2 /// KIR2DS3 /// KIR2DS4 /// KIR3DL3 /// KIR3DL3 /// KIR3DS1 (11738374_at) / RFU C1QL1 (11718748_at) / Fold change /veh C1QL1 (11718748_at) / RFU TMPRSS4 (11747572_a_at) / Fold change /veh TMPRSS4 (11747572_a_at) / RFU HAMP (11756126_x_at) / Fold change /veh HAMP (11756126_x_at) / RFU RNFT2 (11725882_a_at) / Fold change /veh RNFT2 (11725882_a_at) / RFU NR4A2 (11747474_a_at) / Fold change /veh NR4A2 (11747474_a_at) / RFU ABCC12 (11746883_a_at) / Fold change /veh ABCC12 (11746883_a_at) / RFU TMEM136 (11760407_x_at) / Fold change /veh TMEM136 (11760407_x_at) / RFU CLDN22 /// WWC2 (11732394_at) / Fold change /veh CLDN22 /// WWC2 (11732394_at) / RFU HLA-DPB1 (11760878_x_at) / Fold change /veh HLA-DPB1 (11760878_x_at) / RFU SPINT1 (11716480_a_at) / Fold change /veh SPINT1 (11716480_a_at) / RFU GAP43 (11754022_s_at) / Fold change /veh GAP43 (11754022_s_at) / RFU A4GNT (11735810_at) / Fold change /veh A4GNT (11735810_at) / RFU PRB3 (11715151_x_at) / Fold change /veh PRB3 (11715151_x_at) / RFU TUBB4B (11761932_at) / Fold change /veh TUBB4B (11761932_at) / RFU CAPN14 (11732068_a_at) / Fold change /veh CAPN14 (11732068_a_at) / RFU TMCC2 (11721928_a_at) / Fold change /veh TMCC2 (11721928_a_at) / RFU IRGQ (11745062_a_at) / Fold change /veh IRGQ (11745062_a_at) / RFU FAM174B (11720279_a_at) / Fold change /veh FAM174B (11720279_a_at) / RFU TMPRSS4 (11748680_a_at) / Fold change /veh TMPRSS4 (11748680_a_at) / RFU FAM212B (11763350_a_at) / Fold change /veh FAM212B (11763350_a_at) / RFU PLEKHG5 (11743358_a_at) / Fold change /veh PLEKHG5 (11743358_a_at) / RFU ZSCAN30 (11745921_a_at) / Fold change /veh ZSCAN30 (11745921_a_at) / RFU CMKLR1 (11741424_a_at) / Fold change /veh CMKLR1 (11741424_a_at) / RFU LOC101060620 /// MAPK8IP1 (11723275_at) / Fold change /veh LOC101060620 /// MAPK8IP1 (11723275_at) / RFU SPTSSB (11747773_x_at) / Fold change /veh SPTSSB (11747773_x_at) / RFU PRSS12 (11739890_at) / Fold change /veh PRSS12 (11739890_at) / RFU BIN1 (11741810_x_at) / Fold change /veh BIN1 (11741810_x_at) / RFU WNT11 (11732464_a_at) / Fold change /veh WNT11 (11732464_a_at) / RFU C10orf10 (11716521_a_at) / Fold change /veh C10orf10 (11716521_a_at) / RFU C5orf56 (11738089_at) / Fold change /veh C5orf56 (11738089_at) / RFU CYB561 (11721691_x_at) / Fold change /veh CYB561 (11721691_x_at) / RFU ANKRD19P (11752326_a_at) / Fold change /veh ANKRD19P (11752326_a_at) / RFU OR2T12 /// OR2T33 /// OR2T8 (11738714_s_at) / Fold change /veh OR2T12 /// OR2T33 /// OR2T8 (11738714_s_at) / RFU VCAN (11748164_a_at) / Fold change /veh VCAN (11748164_a_at) / RFU JSRP1 (11732532_at) / Fold change /veh JSRP1 (11732532_at) / RFU KRTAP10-11 (11738290_x_at) / Fold change /veh KRTAP10-11 (11738290_x_at) / RFU MYO3A (11730013_a_at) / Fold change /veh MYO3A (11730013_a_at) / RFU EBF3 (11725865_a_at) / Fold change /veh EBF3 (11725865_a_at) / RFU CAMK2N1 (11719241_x_at) / Fold change /veh CAMK2N1 (11719241_x_at) / RFU C5orf56 (11738088_a_at) / Fold change /veh C5orf56 (11738088_a_at) / RFU OLFML3 (11715873_a_at) / Fold change /veh OLFML3 (11715873_a_at) / RFU LOC100653217 /// NTM (11731650_a_at) / Fold change /veh LOC100653217 /// NTM (11731650_a_at) / RFU MAPK11 (11762145_a_at) / Fold change /veh MAPK11 (11762145_a_at) / RFU FIZ1 (11724087_x_at) / Fold change /veh FIZ1 (11724087_x_at) / RFU OASL (11726364_x_at) / Fold change /veh OASL (11726364_x_at) / RFU SOX15 (11748057_x_at) / Fold change /veh SOX15 (11748057_x_at) / RFU CD79A (11719716_a_at) / Fold change /veh CD79A (11719716_a_at) / RFU HIST1H1D (11736915_at) / Fold change /veh HIST1H1D (11736915_at) / RFU CASKIN2 (11723855_a_at) / Fold change /veh CASKIN2 (11723855_a_at) / RFU LOC730098 (11760151_x_at) / Fold change /veh LOC730098 (11760151_x_at) / RFU OR4N2 (11742367_at) / Fold change /veh OR4N2 (11742367_at) / RFU PRRT2 (11749266_a_at) / Fold change /veh PRRT2 (11749266_a_at) / RFU SNX32 (11753110_a_at) / Fold change /veh SNX32 (11753110_a_at) / RFU CDHR5 (11726645_a_at) / Fold change /veh CDHR5 (11726645_a_at) / RFU RCAN1 (11760418_a_at) / Fold change /veh RCAN1 (11760418_a_at) / RFU FAM167A (11723789_a_at) / Fold change /veh FAM167A (11723789_a_at) / RFU FAM26E (11764081_at) / Fold change /veh FAM26E (11764081_at) / RFU ISYNA1 (11749810_s_at) / Fold change /veh ISYNA1 (11749810_s_at) / RFU ACY1 (11761880_at) / Fold change /veh ACY1 (11761880_at) / RFU 11764098_at / Fold change /veh 11764098_at / RFU SAMD14 (11745864_x_at) / Fold change /veh SAMD14 (11745864_x_at) / RFU NPB (11741838_a_at) / Fold change /veh NPB (11741838_a_at) / RFU TMPRSS6 (11731388_a_at) / Fold change /veh TMPRSS6 (11731388_a_at) / RFU KRTAP10-2 (11738614_at) / Fold change /veh KRTAP10-2 (11738614_at) / RFU ARHGAP8 /// PRR5-ARHGAP8 (11727945_x_at) / Fold change /veh ARHGAP8 /// PRR5-ARHGAP8 (11727945_x_at) / RFU KRTAP5-7 /// NADSYN1 (11734609_at) / Fold change /veh KRTAP5-7 /// NADSYN1 (11734609_at) / RFU RASL12 (11751679_a_at) / Fold change /veh RASL12 (11751679_a_at) / RFU CDKN2B (11736163_a_at) / Fold change /veh CDKN2B (11736163_a_at) / RFU PRF1 (11729649_at) / Fold change /veh PRF1 (11729649_at) / RFU, ZNF638 /// ZNF638-IT1 / Fold change vs veh, ZNF638 /// ZNF638-IT1 / RFU, PANK3 / Fold change vs veh, PANK3 / RFU, SH3YL1 / Fold change vs veh, SH3YL1 / RFU, ZEB2 / Fold change vs veh, ZEB2 / RFU, NRIP1 / Fold change vs veh, NRIP1 / RFU, PTTG1IP / Fold change vs veh, PTTG1IP / RFU, CAPN2 / Fold change vs veh, CAPN2 / RFU, MED14 / Fold change vs veh, MED14 / RFU, SNORA58 / Fold change vs veh, SNORA58 / RFU, C1orf63 / Fold change vs veh, C1orf63 / RFU, LRRFIP1 / Fold change vs veh, LRRFIP1 / RFU, NDUFAF7 / Fold change vs veh, NDUFAF7 / RFU, SLC12A2 / Fold change vs veh, SLC12A2 / RFU, IBTK / Fold change vs veh, IBTK / RFU, ESF1 / Fold change vs veh, ESF1 / Fold change vs veh, TMEM50B / RFU, TAOK1 / Fold change vs veh, TAOK1 / RFU, ACBD3 / Fold change vs veh, ACBD3 / RFU, TMA16 / Fold change vs veh, TMA16 / RFU, RWDD3 / Fold change vs veh, RWDD3 / RFU, BCAT1 / Fold change vs veh, BCAT1 / RFU, EDEM3 / Fold change vs veh, EDEM3 / RFU, TMEM33 / Fold change vs veh, TMEM33 / RFU, WDR75 / Fold change vs veh, WDR75 / RFU, AHCTF1 / Fold change vs veh, AHCTF1 / RFU, TFRC / Fold change vs veh, TFRC / RFU, ZDHHC17 / Fold change vs veh, ZDHHC17 / RFU, NOM1 / Fold change vs veh, NOM1 / RFU, ARL8B / Fold change vs veh, ARL8B / RFU, ZBTB11 / Fold change vs veh, ZBTB11 / RFU, TAMM41 / Fold change vs veh, TAMM41 / RFU, KIAA1704 /// LOC100996395 / Fold change vs veh, KIAA1704 /// LOC100996395 / RFU, ING1 / Fold change vs veh, ING1 / RFU, TRMT61B / Fold change vs veh, TRMT61B / RFU, FUBP3 / Fold change vs veh, FUBP3 / RFU, TP53 / Fold change vs veh, TP53 / RFU, TNKS2 / Fold change vs veh, TNKS2 / RFU, ZFP14 / Fold change vs veh, ZFP14 / RFU, ACTR2 / Fold change vs veh, ACTR2 / RFU, PPP3R1 / Fold change vs veh, PPP3R1 / RFU, PIK3R1 / Fold change vs veh, PIK3R1 / RFU, HNRNPA1 / Fold change vs veh, HNRNPA1 / RFU, RNF170 / Fold change vs veh, RNF170 / RFU, ZNF28 / Fold change vs veh, ZNF28 / RFU, RNGTT / Fold change vs veh, RNGTT / RFU, OGT / Fold change vs veh, OGT / RFU, BRD1 / Fold change vs veh, BRD1 / RFU, MARS / Fold change vs veh, MARS / RFU, ZNF655 / Fold change vs veh, ZNF655 / RFU, FAHD1 / Fold change vs veh, FAHD1 / RFU, BDP1 / Fold change vs veh, BDP1 / RFU, LRRCC1 / Fold change vs veh, LRRCC1 / RFU, ARID1A / Fold change vs veh, ARID1A / RFU, ZNF146 / Fold change vs veh, ZNF146 / RFU, ZNF330 / Fold change vs veh, ZNF330 / RFU, GPN3 / Fold change vs veh, GPN3 / RFU, C9orf123 / Fold change vs veh, C9orf123 / RFU, N4BP2L2 / Fold change vs veh, N4BP2L2 / RFU, ARFIP1 / Fold change vs veh, ARFIP1 / RFU, FAM179B / Fold change vs veh, FAM179B / RFU, BCL10 / Fold change vs veh, BCL10 / RFU, UHRF1BP1L / Fold change vs veh, UHRF1BP1L / RFU, BET1 / Fold change vs veh, BET1 / RFU, CNOT2 / Fold change vs veh, CNOT2 / RFU, ZNF268 / Fold change vs veh, ZNF268 / Fold change vs veh, ZNF507 / RFU, DGCR2 / Fold change vs veh, DGCR2 / RFU, WDSUB1 / Fold change vs veh, WDSUB1 / Fold change vs veh, HSP90B1 /// MIR3652 / RFU, ADSS / Fold change vs veh, ADSS / RFU, GK / Fold change vs veh, GK / RFU, ZNF148 / Fold change vs veh, ZNF148 / RFU, TAF9 / Fold change vs veh, TAF9 / RFU, SLC1A5 / Fold change vs veh, SLC1A5 / RFU, SLMO2 / Fold change vs veh, SLMO2 / RFU, ABCC4 / Fold change vs veh, ABCC4 / RFU, LOC101060439 /// RAP1B / Fold change vs veh, LOC101060439 /// RAP1B / RFU, RFX7 / Fold change vs veh, RFX7 / RFU, GTPBP10 / Fold change vs veh, GTPBP10 / RFU, CNEP1R1 / Fold change vs veh, CNEP1R1 / RFU, BIVM-ERCC5 /// ERCC5 / Fold change vs veh, BIVM-ERCC5 /// ERCC5 / RFU, ILF3 / Fold change vs veh, ILF3 / RFU 11762660_at / Fold change /veh 11762660_at / RFU VCAN (11757783_s_at) / Fold change /veh VCAN (11757783_s_at) / RFU DDX43 (11728927_at) / Fold change /veh DDX43 (11728927_at) / RFU KRT8 (11758188_x_at) / Fold change /veh KRT8 (11758188_x_at) / RFU NKD1 (11759106_at) / Fold change /veh NKD1 (11759106_at) / RFU SRD5A1 (11742802_a_at) / Fold change /veh SRD5A1 (11742802_a_at) / RFU TPSAB1 /// TPSB2 (11721975_s_at) / Fold change /veh TPSAB1 /// TPSB2 (11721975_s_at) / RFU GSTM3 (11746129_a_at) / Fold change /veh GSTM3 (11746129_a_at) / RFU IL23R (11737362_x_at) / Fold change /veh IL23R (11737362_x_at) / RFU TMEM51 (11727254_a_at) / Fold change /veh TMEM51 (11727254_a_at) / RFU PIWIL2 (11732686_x_at) / Fold change /veh PIWIL2 (11732686_x_at) / RFU ORM1 (11744905_x_at) / Fold change /veh ORM1 (11744905_x_at) / RFU CCDC152 (11743942_at) / Fold change /veh CCDC152 (11743942_at) / RFU ECM1 (11717891_a_at) / Fold change /veh ECM1 (11717891_a_at) / RFU IL23R (11748794_a_at) / Fold change /veh IL23R (11748794_a_at) / RFU TNFAIP8L3 (11732012_x_at) / Fold change /veh TNFAIP8L3 (11732012_x_at) / RFU MBOAT4 (11741988_at) / Fold change /veh MBOAT4 (11741988_at) / RFU 11764193_at / Fold change /veh 11764193_at / RFU TMEM53 (11763286_at) / Fold change /veh TMEM53 (11763286_at) / RFU MAGEB2 (11727129_at) / Fold change /veh MAGEB2 (11727129_at) / RFU TMEM200A (11744735_a_at) / Fold change /veh TMEM200A (11744735_a_at) / RFU CCDC152 (11751479_a_at) / Fold change /veh CCDC152 (11751479_a_at) / RFU FAM211A (11726209_a_at) / Fold change /veh FAM211A (11726209_a_at) / RFU RGS16 (11746705_a_at) / Fold change /veh RGS16 (11746705_a_at) / RFU VCAN (11755009_s_at) / Fold change /veh VCAN (11755009_s_at) / RFU RHOB (11743442_s_at) / Fold change /veh RHOB (11743442_s_at) / RFU RGS16 (11720943_a_at) / Fold change /veh RGS16 (11720943_a_at) / RFU RGS16 (11720944_at) / Fold change /veh RGS16 (11720944_at) / RFU, VPS4B / Fold change vs veh, VPS4B / RFU, CREB1 / Fold change vs veh, CREB1 / RFU, DNAJC13 / Fold change vs veh, DNAJC13 / RFU, GNAQ / Fold change vs veh, GNAQ / RFU, CDK5R1 / Fold change vs veh, CDK5R1 / RFU, ZRANB3 / Fold change vs veh, ZRANB3 / RFU, CUL4A / Fold change vs veh, CUL4A / RFU, CCNY / Fold change vs veh, CCNY / RFU, UFL1 / Fold change vs veh, UFL1 / RFU, COG3 / Fold change vs veh, COG3 / RFU, DIAPH2 / Fold change vs veh, DIAPH2 / RFU, SKA2 / Fold change vs veh, SKA2 / RFU, AFF3 / Fold change vs veh, AFF3 / RFU, LMF1 / Fold change vs veh, LMF1 / RFU, IPO11 / Fold change vs veh, IPO11 / RFU, DFFB / Fold change vs veh, DFFB / RFU, FOXP1 / Fold change vs veh, FOXP1 / RFU, CARD8 / Fold change vs veh, CARD8 / RFU, STRN3 / Fold change vs veh, STRN3 / RFU, ADK / Fold change vs veh, ADK / RFU, RASSF2 / Fold change vs veh, RASSF2 / RFU, WIPF1 / Fold change vs veh, WIPF1 / RFU, LARP1B / Fold change vs veh, LARP1B / RFU, RASA1 / Fold change vs veh, RASA1 / RFU, RB1 / Fold change vs veh, RB1 / RFU, PPFIA1 / Fold change vs veh, PPFIA1 / RFU, MAT2A / Fold change vs veh, MAT2A / RFU, CCT5 / Fold change vs veh, CCT5 / RFU, WDR92 / Fold change vs veh, WDR92 / RFU, CUX1 / Fold change vs veh, CUX1 / RFU, TTC7A / Fold change vs veh, TTC7A / RFU, TMEM135 / Fold change vs veh, TMEM135 / RFU, DEPTOR / Fold change vs veh, DEPTOR / RFU, CPM / Fold change vs veh, CPM / RFU, DNAJB6 / Fold change vs veh, DNAJB6 / RFU, CACNA2D3 / Fold change vs veh, CACNA2D3 / RFU, DTX4 / Fold change vs veh, DTX4 / RFU, TFCP2 / Fold change vs veh, TFCP2 / RFU, GMCL1 /// GMCL1P1 / Fold change vs veh, GMCL1 /// GMCL1P1 / RFU, AEBP2 / Fold change vs veh, AEBP2 / RFU, SNHG1 /// SNORD22 /// SNORD25 /// SNORD26 /// SNORD27 /// SNORD28 /// SNORD29 /// SNORD31 / Fold change vs veh, SNHG1 /// SNORD22 /// SNORD25 /// SNORD26 /// SNORD27 /// SNORD28 /// SNORD29 /// SNORD31 / Fold change (Aza/veh), C12orf56 (ProbeSet 11735607_a_at) / Fold change (ACY-1035/veh), C12orf56 (ProbeSet 11735607_a_at) / Fold change (Aza/veh), FGFR1OP (ProbeSet 11751329_s_at) / Fold change (ACY-1035/veh), FGFR1OP (ProbeSet 11751329_s_at) / Fold change (Aza/veh), VPS36 (ProbeSet 11739960_a_at) / Fold change (ACY-1035/veh), VPS36 (ProbeSet 11739960_a_at) / RFU SYPL1 (11715823_x_at) / Fold change /veh SYPL1 (11715823_x_at) / RFU IGFBP7 (11715501_s_at) / Fold change /veh IGFBP7 (11715501_s_at) / RFU REEP3 (11722064_at) / Fold change /veh REEP3 (11722064_at) / RFU IGLL1 (11728026_x_at) / Fold change /veh IGLL1 (11728026_x_at): dose or concentration left out as unconfirmed
Settings: MV-4-11 cells, 48 hours

Structure (SMILES): Nc1ncn([C@@H]2O[C@H](CO)[C@@H](O)[C@H]2O)c(=O)n1 [azacitidine]
- Fold change /veh ORM1 (11744905_x_at): 1.26
